Source: patent US20120226031A1, “PALMARUMYCIN BASED INHIBITORS OF THIOREDOXIN AND METHODS OF USING SAME” (ARIZONA BOARD OF REGENTS, ACTING ON BEHALF OF THE …, priority 2005, published 2012)
Like-named read-outs stand apart in the source and are kept apart here.

Key:
[1] = Stability in ethanol at room temperature; assay type: physicochemical
Source text: PX-916 was stable as a stock solution in ethanol at room temperature with a half life of >5 days. […] Therefore, for in vitro studies PX-916 was used as a stock solution in ethanol, and for in vivo studies made fresh in pH 4.0 buffer vehicle.

[2] = system: HIF-1α; assay: Tumor HIF-1α immunohistochemistry in MCF-7 xenografts; assay type: in vivo, mouse; details: five daily doses of 25 mg/kg, 24 hours after last dose
Experimental: (§1) FIG. 5. Inhibition of tumor HIF-1α, VEGF and thioredoxin reductase by repeated administration of PX-916. Female scid mice were implanted 1d previously with a 90-d 17β-estradiol slow release pellet were inoculated s.c. with 10^7 MCF-7 human breast cancer cells. When the tumors were 300 mm^3, vehicle or 25 mg/kg/d PX-916 was given i.v. for five doses. Twenty four hours later, the tumors were removed and stained by immunohistochemistry for HIF-1α and VEGF (A) or assayed for thioredoxin reductase activity (B). Columns mean of four mice, SE. P≦0.05.
(§2) Levels of the HIF-1α transcription factor and its downstream target VEGF are increased by thioredoxin-1 expression. We examined the effect of PX-916 administration on tumor HIF-1α and VEGF levels (FIG. 5A). Twenty-four hours after the last dose of five daily doses of PX-916 of 25 mg/kg, there was a decrease in MCF-7 xenograft staining for both HIF-1α and VEGF. At the same time, levels of tumor thioredoxin reductase activity were decreased by 75% (FIG. 5B).

[3] = system: VEGF; assay: Tumor VEGF immunohistochemistry in MCF-7 xenografts; assay type: in vivo, mouse; details: five daily doses of 25 mg/kg, 24 hours after last dose
Experimental: as §1, §2

[4] = target: T1, human thioredoxin reductase (Homo sapiens, UniProt Q16881); assay: Inhibition of purified human thioredoxin reductase (TrxR/TR); assay type: biochemical
T1 construct: (placenta); from tissue; host or cells: human placenta
T1 sequence (Q16881 151-649 limits assumed): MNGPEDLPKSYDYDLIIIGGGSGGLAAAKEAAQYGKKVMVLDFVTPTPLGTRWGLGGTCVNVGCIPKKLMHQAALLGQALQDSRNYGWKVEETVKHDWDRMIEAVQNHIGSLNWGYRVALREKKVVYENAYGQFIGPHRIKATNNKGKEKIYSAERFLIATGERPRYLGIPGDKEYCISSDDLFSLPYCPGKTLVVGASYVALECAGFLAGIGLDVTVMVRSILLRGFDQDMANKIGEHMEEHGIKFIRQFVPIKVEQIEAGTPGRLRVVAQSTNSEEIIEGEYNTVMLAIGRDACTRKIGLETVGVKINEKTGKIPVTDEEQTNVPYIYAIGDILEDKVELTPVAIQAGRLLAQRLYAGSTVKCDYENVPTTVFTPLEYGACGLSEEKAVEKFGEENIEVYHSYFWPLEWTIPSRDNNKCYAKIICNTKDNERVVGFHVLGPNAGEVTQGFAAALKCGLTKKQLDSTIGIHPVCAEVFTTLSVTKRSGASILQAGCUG

[5] = system: A-673 human rhabdomyosarcoma xenografts; assay: Antitumor activity, A-673 rhabdomyosarcoma xenograft; assay type: in vivo, mouse; parameters: dose or concentration left out as unconfirmed; details: ip
Experimental: FIG. 4. Antitumor activity of PX-916. A. Female beige nude mice were inoculated subcutaneously (s.c.) with 10^7 A-673 rhabdomyosarcoma cells. […] B. Female scid mice were inoculated s.c. with 10^7 SHP-77 human small cell lung cancer cells. When tumors were 130 mm^3 on day 17 (arrow) dosing was begun with (∘) vehicle alone; (▪) PX-916 10 mg/kg i.v. daily for 8 doses; (▴) PX-916 25 mg/kg i.v. daily for 5 doses. C. Female scid mice implanted 1 day previously with a 17-β-estradiol 60 day slow release pellet were inoculated s.c. with 10^7 MCF-7 human breast cancer cells. When tumors were 180 mm^3 on day 8 (arrow) dosing was begun with (∘) vehicle alone; (⋄) PX-916 27.5 mg/kg i.v. daily for 5 doses. In both A and B values are the mean of 8 mice per group and bars are SE.
(§3) A single intravenous (i.v.) dose of PX-916 of 25 mg/kg inhibited MCF-7 human tumor xenograft TR up to about 60% at 24 hr and the inhibition was maintained for at least 48 hr (FIG. 3C). […] In this study 3 of eight nice had no histologically detectable tumor when the study was terminated on day 42.

[6] = system: MCF-7 human breast cancer xenografts; assay: Antitumor activity, MCF-7 breast cancer xenograft; assay type: in vivo, mouse
Experimental: FIG. 4. Antitumor activity of PX-916. A. Female beige nude mice were inoculated subcutaneously (s.c.) with 10^7 A-673 rhabdomyosarcoma cells. When tumors were 100 mm^3 on day 8 (arrow) dosing was begun with (∘) vehicle alone; (▴) PX-916 10 mg/kg intraperitoneally (i.p.) daily for 4 doses. B. Female scid mice were inoculated s.c. with 10^7 SHP-77 human small cell lung cancer cells. When tumors were 130 mm^3 on day 17 (arrow) dosing was begun with (∘) vehicle alone; (▪) PX-916 10 mg/kg i.v. daily for 8 doses; (▴) PX-916 25 mg/kg i.v. daily for 5 doses. C. Female scid mice implanted 1 day previously with a 17-β-estradiol 60 day slow release pellet were inoculated s.c. with 10^7 MCF-7 human breast cancer cells. […] In both A and B values are the mean of 8 mice per group and bars are SE.
as §3

[7] = 27.5 mg/kg i.v. every other day for 5 doses

Compound: NCC(=O)Oc1ccc2c3c(cccc13)OC1(C=CC(=O)c3c(O)cccc31)O2 (stereo not shown) [PX-916, O-glycyl naphthoquinone spiroketal]
- half life of stock solution in ethanol ([1]; b145): > 120 h
- half-life ([1]; ethanol, b120, read-out: half-life for conversion to PX-960 in ethanol): > 120 h
- MCF-7 xenograft staining for HIF-1α [2]: decrease
- MCF-7 xenograft staining for VEGF [3]: decrease
- IC50 ([4]; Table 1, read-out: TrxR inhibitory activity IC50): 280 nM
- IC50 ([4]; Table 2, read-out: Inhibition of human thioredoxin reductase IC50): 280 nM
- IC50 ([4]; Table 3, read-out: Inhibition IC50, thioredoxin reductase (placenta)): 280 nM
- mode of inhibition of thioredoxin reductase-1 ([4]; in words): NADPH and time dependent, apparently, irreversible inhibitor
- IC50 ([4]; read-out: IC50 purified TrxR): 280 nM
- IC50 ([4]; read-out: IC50 purified human TR): 280 nM
- tumor growth inhibition [5]: 97%
- tumor growth rate ([5]; 5 days after dosing): 5±3 mm^3/d
- tumor growth inhibition ([6]; 27.5 mg/kg i.v. daily for 5 doses): 52%
- tumor growth rate ([6]; 27.5 mg/kg i.v. daily for 5 doses, 5 days after end of dosing): 22±4 mm^3/day
- tumor growth inhibition [6, 7]: 52%
- tumor growth rate [6, 7]: 22±8 mm^3/day
- tumor growth inhibition ([6]; 27.5 mg/kg orally for 5 doses): 62%
- tumor growth rate ([6]; 27.5 mg/kg orally for 5 doses): 18.5±8 mm^3/day
- antitumor activity following oral administration ([6]; oral, at doses that gave i.v. antitumor activity): Significant antitumor activity was not seen
